US9199946B2, “Pyrimidinone carboxamide inhibitors of endothelial lipase” (BRISTOL-MYERS SQUIBB COMPANY, priority 2012, dated 2015)

Each compound was assayed against T1, Endothelial lipase (EL) (Homo sapiens, UniProt Q9Y5X9) (assay: Endothelial lipase (EL) enzymatic assay with fluorescent substrate A10070 in DMPG vesicles). Conditions: conditioned media from HT-1080 cells overexpressing endogenous EL; 20 min preincubation at 37° C.; read-out: EL IC50.
T1 construct: HT-1080 cells, which were transformed by RAGE technology (Athersys) to overexpress endogenous EL; endogenous in cells; conditioned medium used as the enzyme source
T1 sequence (Q9Y5X9 21-500): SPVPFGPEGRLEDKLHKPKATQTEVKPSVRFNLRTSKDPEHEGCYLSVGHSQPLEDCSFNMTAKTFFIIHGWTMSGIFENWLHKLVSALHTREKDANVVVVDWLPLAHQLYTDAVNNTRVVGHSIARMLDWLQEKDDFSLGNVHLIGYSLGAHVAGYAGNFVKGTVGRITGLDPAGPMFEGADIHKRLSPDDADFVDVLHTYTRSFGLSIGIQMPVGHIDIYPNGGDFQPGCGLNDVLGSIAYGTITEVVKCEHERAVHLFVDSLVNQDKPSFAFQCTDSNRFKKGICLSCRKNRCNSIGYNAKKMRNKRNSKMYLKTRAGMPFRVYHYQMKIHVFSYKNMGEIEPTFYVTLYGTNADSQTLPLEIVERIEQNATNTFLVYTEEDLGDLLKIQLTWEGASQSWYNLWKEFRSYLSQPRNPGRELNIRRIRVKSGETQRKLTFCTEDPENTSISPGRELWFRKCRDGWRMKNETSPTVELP
Format: biochemical
How it was run: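 EL activity was followed as a fluorescence rate (488/530 nm, reads every 20 s for 10 min, linear slope) on A10070 doped at 0.05 mole fraction into sonicated DMPG vesicles. Compound was first incubated 20 min at 37 °C, pH 8.0 HEPES/CaCl2 buffer, with conditioned media from EL-overexpressing HT-1080 cells.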

| IC50 [µM] | SMILES |
| --- | --- |
| 1.48 | Cc1nc(-c2ccccc2)sc1-c1ccc([C@@H]2CC[C@H](NC(=O)c3[nH]c(=O)[nH]c(=O)c3N)C2)cc1 (stereo in doubt) [Example 171, 5-amino-N-((1S,3R)-3-(4-(4-methyl-2-phenylthiazol-5-yl)phenyl)cyclopentyl)-2,6-dioxo-1,2,3,6-tetrahydropyrimidine-4-carboxamide] |
| 0.496 | Nc1c(C(=O)N[C@@H]2CC[C@H](c3ccc(-c4cccc5ncccc45)cc3)C2)[nH]c(=O)[nH]c1=O [Example 175, 5-amino-2,6-dioxo-N-((1R,3S)-3-(4-(quinolin-5-yl)phenyl)cyclopentyl)-1,2,3,6-tetrahydropyrimidine-4-carboxamide] |
| 1.09 | Nc1c(C(=O)N[C@H]2CC[C@@H](c3ccc(-c4ccnn4C4CCCCO4)cc3)C2)[nH]c(=O)[nH]c1=O (stereo partly drawn) [Example 176, 5-amino-2,6-dioxo-N-((1S,3R)-3-(4-(1-(tetrahydro-2H-pyran-2-yl)-1H-pyrazol-5-yl)phenyl)cyclopentyl)-1,2,3,6-tetrahydropyrimidine-4-carboxamide] |
| 0.525 | Nc1c(C(=O)NC2CCC(c3cccc(OCc4ccccc4)c3)C2)[nH]c(=O)[nH]c1=O (stereo not drawn) [Example 158, 5-amino-N-(3-(3-(benzyloxy)phenyl)cyclopentyl)-2,6-dioxo-1,2,3,6-tetrahydropyrimidine-4-carboxamide] |
| 0.013 | Cc1ccc(S(=O)(=O)Nc2ccc(C3CCCC(NC(=O)c4[nH]c(=O)[nH]c(=O)c4N)C3)cc2)cc1 (stereo not drawn) [Example 128, 5-amino-N-(3-(4-(4-methylphenylsulfonamido)phenyl)cyclohexyl)-2,6-dioxo-1,2,3,6-tetrahydropyrimidine-4-carboxamide] |
| 3.14 | O=C(Nc1ccccc1)N[C@H]1CC[C@@H](NC(=O)c2[nH]c(=O)[nH]c(=O)c2O)CC1 [Example 280, 5-hydroxy-2,6-dioxo-N-(cis-4-(3-phenylureido)cyclohexyl)-1,2,3,6-tetrahydropyrimidine-4-carboxamide] |
| 13 | Nc1c(C(=O)N[C@H]2CCc3ccc(C(F)(F)F)cc32)[nH]c(=O)[nH]c1=O [Example 15, (S)-5-amino-2,6-dioxo-N-(6-(trifluoromethyl)-2,3-dihydro-1H-inden-1-yl)-1,2,3,6-tetrahydropyrimidine-4-carboxamide] |

Same assay, conditions: range observed in the EL assay; read-out: EL IC50 values

| IC50 [µM] | SMILES |
| --- | --- |
| ≤ 10 | O=C(N[C@@H]1CCc2cc(O)ccc21)c1[nH]c(=O)[nH]c(=O)c1O [Example 262, (R)-5-hydroxy-N-(5-hydroxy-2,3-dihydro-1H-inden-1-yl)-2,6-dioxo-1,2,3,6-tetrahydropyrimidine-4-carboxamide] |
| ≤ 10 | Cc1nc(-c2ccccc2)sc1-c1ccc([C@@H]2CC[C@H](NC(=O)c3[nH]c(=O)[nH]c(=O)c3N)C2)cc1 (stereo in doubt) [Example 171, 5-amino-N-((1S,3R)-3-(4-(4-methyl-2-phenylthiazol-5-yl)phenyl)cyclopentyl)-2,6-dioxo-1,2,3,6-tetrahydropyrimidine-4-carboxamide] |
| ≤ 10 | COc1cccc2c1CCC[C@H]2NC(=O)c1[nH]c(=O)[nH]c(=O)c1O [Example 261, (R)-5-hydroxy-N-(5-methoxy-1,2,3,4-tetrahydronaphthalen-1-yl)-2,6-dioxo-1,2,3,6-tetrahydropyrimidine-4-carboxamide] |
| ≤ 10 | O=C(N[C@@H]1CCCc2cc(OCC(F)(F)F)ccc21)c1[nH]c(=O)[nH]c(=O)c1O [Example 256, (R)-5-hydroxy-2,6-dioxo-N-(6-(2,2,2-trifluoroethoxy)-1,2,3,4-tetrahydronaphthalen-1-yl)-1,2,3,6-tetrahydropyrimidine-4-carboxamide] |
| ≤ 10 | COc1ccc([C@@H]2CC[C@H](NC(=O)c3[nH]c(=O)[nH]c(=O)c3N)C2)cn1 [Example 79, 5-amino-N-((1S,3R)-3-(6-methoxypyridin-3-yl)cyclopentyl)-2,6-dioxo-1,2,3,6-tetrahydropyrimidine-4-carboxamide] |
| ≤ 10 | Nc1c(C(=O)N[C@@H]2CCc3c(OCc4ccccc4)cccc32)[nH]c(=O)[nH]c1=O [Example 86, (R)-5-ammo-N-(4-(benzyloxy)-2,3-dihydro-1H-inden-1-yl)-2,6-dioxo-1,2,3,6-tetrahydropyrimidine-4-carboxamide] |
| ≤ 10 | Nc1c(C(=O)N[C@@H]2CC[C@H](c3ccc(-c4cccc5ncccc45)cc3)C2)[nH]c(=O)[nH]c1=O [Example 175, 5-amino-2,6-dioxo-N-((1R,3S)-3-(4-(quinolin-5-yl)phenyl)cyclopentyl)-1,2,3,6-tetrahydropyrimidine-4-carboxamide] |
| ≤ 10 | CC(C)(C)COc1ccc(C2CCC(NC(=O)c3[nH]c(=O)[nH]c(=O)c3N)C2)cc1 (stereo not drawn) [Example 143, 5-amino-N-(3-(4-(neopentyloxy)phenyl)cyclopentyl)-2,6-dioxo-1,2,3,6-tetrahydropyrimidine-4-carboxamide] |
| ≤ 10 | COc1cccc2c1CCC[C@H]2NC(=O)c1[nH]c(=O)[nH]c(=O)c1N [Example 103, (R)-5-amino-N-(5-methoxy-1,2,3,4-tetrahydronaphthalen-1-yl)-2,6-dioxo-1,2,3,6-tetrahydropyrimidine-4-carboxamide] |
| ≤ 10 | Nc1c(C(=O)N[C@H]2CC[C@@H](c3ccc(-c4ccnn4C4CCCCO4)cc3)C2)[nH]c(=O)[nH]c1=O (stereo partly drawn) [Example 176, 5-amino-2,6-dioxo-N-((1S,3R)-3-(4-(1-(tetrahydro-2H-pyran-2-yl)-1H-pyrazol-5-yl)phenyl)cyclopentyl)-1,2,3,6-tetrahydropyrimidine-4-carboxamide] |
| ≤ 10 | Nc1c(C(=O)N[C@H]2CCc3ccc(Br)cc32)[nH]c(=O)[nH]c1=O [Example 55, (S)-5-amino-N-(6-bromo-2,3-dihydro-1H-inden-1-yl)-2,6-dioxo-1,2,3,6-tetrahydropyrimidine-4-carboxamide] |
| ≤ 10 | Nc1c(C(=O)NC2CCN(c3ccccc3)C2)[nH]c(=O)[nH]c1=O (stereo not drawn) [Example 182, 5-amino-2,6-dioxo-N-(1-phenylpyrrolidin-3-yl)-1,2,3,6-tetrahydropyrimidine-4-carboxamide] |
| ≤ 10 | Cc1ccc(S(=O)(=O)Nc2ccc(C3CCCC(NC(=O)c4[nH]c(=O)[nH]c(=O)c4N)C3)cc2)cc1 (stereo not drawn) [Example 128, 5-amino-N-(3-(4-(4-methylphenylsulfonamido)phenyl)cyclohexyl)-2,6-dioxo-1,2,3,6-tetrahydropyrimidine-4-carboxamide] |
| ≤ 10 | NS(=O)(=O)c1ccc(CCNc2c(C(=O)N[C@H]3CC[C@@H](c4ccccc4)CC3)[nH]c(=O)[nH]c2=O)cc1 [Example 226, 2,6-dioxo-N-(cis-4-phenylcyclohexyl)-5-(4-sulfamoylphenethylamino)-1,2,3,6-tetrahydropyrimidine-4-carboxamide] |
| ≤ 10 | COc1ccc(-c2ccc([C@@H]3CC[C@H](NC(=O)c4[nH]c(=O)[nH]c(=O)c4N)C3)cc2)cc1 [Example 168, 5-amino-N-((1S,3R)-3-(4′-methoxybiphenyl-4-yl)cyclopentyl)-2,6-dioxo-1,2,3,6-tetrahydropyrimidine-4-carboxamide] |
| ≤ 10 | O=C(N[C@H]1CC[C@@H](c2ccccc2)CC1)c1[nH]c(=O)[nH]c(=O)c1NCCc1ccccc1Cl [Example 221, 5-(2-chlorophenethylamino)-2,6-dioxo-N-(cis-4-phenylcyclohexyl)-1,2,3,6-tetrahydropyrimidine-4-carboxamide] |
| ≤ 10 | O=C(N[C@@H]1CC[C@@H](c2ccc(Cl)c(Cl)c2)C1)c1[nH]c(=O)[nH]c(=O)c1O [Example 251, N-((1R,3R)-3-(3,4-dichlorophenyl)cyclopentyl)-5-hydroxy-2,6-dioxo-1,2,3,6-tetrahydropyrimidine-4-carboxamide] |
| ≤ 10 | O=C(Nc1ccccc1)N[C@H]1CC[C@@H](NC(=O)c2[nH]c(=O)[nH]c(=O)c2O)CC1 [Example 280, 5-hydroxy-2,6-dioxo-N-(cis-4-(3-phenylureido)cyclohexyl)-1,2,3,6-tetrahydropyrimidine-4-carboxamide] |
| ≤ 10 | O=C(N[C@@H]1CCC[C@@H](c2ccccc2)C1)c1[nH]c(=O)[nH]c(=O)c1O [Example 278, 5-hydroxy-2,6-dioxo-N-((1R,3R)-3-phenylcyclohexyl)-1,2,3,6-tetrahydropyrimidine-4-carboxamide] |
| ≤ 10 | CC(C)(C)OC(=O)N1CCC(NC(=O)c2[nH]c(=O)[nH]c(=O)c2N)c2ccccc21 (stereo not drawn) [Example 16, tert-butyl 4-(5-amino-2,6-dioxo-1,2,3,6-tetrahydropyrimidine-4-carboxamido)-3,4-dihydroquinoline-1(2H)-carboxylate] |
| ≤ 10 | O=C(N[C@H]1CC[C@@H](C(=O)N[C@@H]2CCCc3c(OCc4ccccc4)cccc32)C1)c1[nH]c(=O)[nH]c(=O)c1O [Example 263, N-((1S,3R)-3-((R)-5-(benzyloxy)-1,2,3,4-tetrahydronaphthalen-1-ylcarbamoyl)cyclopentyl)-5-hydroxy-2,6-dioxo-1,2,3,6-tetrahydropyrimidine-4-carboxamide] |
| ≤ 10 | O=C(NC1CCCc2c(CCc3ccccc3)cccc21)c1[nH]c(=O)[nH]c(=O)c1O (stereo not drawn) [Example 284, 5-hydroxy-2,6-dioxo-N-(5-phenethyl-1,2,3,4-tetrahydronaphthalen-1-yl)-1,2,3,6-tetrahydropyrimidine-4-carboxamide] |
| ≤ 10 | Nc1c(C(=O)N[C@@H]2CCCc3c(NCc4ccccc4)cccc32)[nH]c(=O)[nH]c1=O [Example 123, (R)-5-amino-N-(5-(benzylamino)-1,2,3,4-tetrahydronaphthalen-1-yl)-2,6-dioxo-1,2,3,6-tetrahydropyrimidine-4-carboxamide] |
| ≤ 10 | Nc1c(C(=O)N[C@H]2CC[C@@H](NC(=O)Cc3ccccc3)CC2)[nH]c(=O)[nH]c1=O [Example 116, 5-amino-2,6-dioxo-N-(cis-4-(2-phenylacetamido)cyclohexyl)-1,2,3,6-tetrahydropyrimidine-4-carboxamide] |
| ≤ 10 | Nc1c(C(=O)N[C@@H]2CCCc3cc(C(F)(F)F)ccc32)[nH]c(=O)[nH]c1=O [Example 51, (R)-5-amino-2,6-dioxo-N-(6-(trifluoromethyl)-1,2,3,4-tetrahydronaphthalen-1-yl)-1,2,3,6-tetrahydropyrimidine-4-carboxamide] |
| ≤ 10 | COc1ccc2c(c1)C(NC(=O)c1[nH]c(=O)[nH]c(=O)c1N)CCC2 (single isomer, unassigned; enantiomer b) [Example 200, 5-amino-N-(7-methoxy-1,2,3,4-tetrahydronaphthalen-1-yl)-2,6-dioxo 1,2,3,6-tetrahydropyrimidine-4-carboxamide (Enantiomer B)] |
